# pEC50, pIC50, pKi: −log10 of the molar value. Calls of active or inactive are those of the source. No cut-off for these calls is given here.
# How the values were obtained:
# Cannabinoid receptor 1 [1] = target: T1, Cannabinoid receptor 1 (Homo sapiens, UniProt P21554)
# Description: Agonist activity at human CB1 receptor transfected in CHO cells after 5 hrs by luciferase reporter gene assay
# [2] = Half life in mouse liver microsomes; assay type: ADME, Microsome
# [3] = Half life in human liver microsomes; assay type: ADME, Microsome
# Cannabinoid receptor 2 = Cannabinoid receptor 2 (Homo sapiens, UniProt P34972); experiment: Displacement of [3H]-CP55940 from human CB2 expressed in insect Sf9 membranes; assay type: cell membranes
# Cannabinoid receptor 1 [4] = target: T1, Cannabinoid receptor 1; experiment: biochemical
# Mus musculus [5] = experiment: Antinociceptive effect in iv dosed mouse assessed as increase in tail-flick latency period by tail flick test; assay type: functional
# [6] = Genotoxicity in Salmonella Typhimurium up to 100 uM by Ames test; assay type: toxicity; settings: salmonella enterica subsp. enterica serovar typhimurium
# Cytochrome P450 2D6 = Cytochrome P450 2D6 (Homo sapiens, UniProt P10635); experiment: Inhibition of human CYP2D6; assay type: ADME
# Cytochrome P450 3A4 = Cytochrome P450 3A4 (Homo sapiens, UniProt P08684); experiment: Inhibition of human CYP3A4; assay type: ADME
# Cytochrome P450 2C9 = Cytochrome P450 2C9 (Homo sapiens, UniProt P11712); experiment: Inhibition of human CYP2C9; assay type: ADME
# Mus musculus [7] = experiment: Antinociceptive activity against formalin-induced inflammatory pain in iv dosed mouse assessed inhibition of paw biting behavior in both phases of formalin response in presence of CB1 antagonist SR-141716A pretreated before compound challenge; assay type: functional, organism-based
# Mus musculus [8] = experiment: Antinociceptive activity against formalin-induced inflammatory pain in mouse assessed inhibition of paw licking behavior in both phases of formalin response at => 0.3 umol/kg, iv; assay type: functional, organism-based
# Mus musculus [9] = experiment: Antinociceptive activity against formalin-induced inflammatory pain in iv dosed mouse assessed inhibition of paw flinching behavior in both phases of formalin response in presence of CB1 antagonist SR-141716A pretreated before compound challenge; assay type: functional, organism-based
# Mus musculus [10] = experiment: Antinociceptive activity against formalin-induced inflammatory pain in iv dosed mouse assessed inhibition of paw licking behavior in both phases of formalin response; assay type: functional, organism-based
# Mus musculus [11] = experiment: Antinociceptive activity against formalin-induced inflammatory pain in mouse assessed inhibition of paw flinching behavior in both phases of formalin response at => 0.3 umol/kg, iv; assay type: functional, organism-based
# Mus musculus [12] = experiment: Antinociceptive activity against formalin-induced inflammatory pain in mouse assessed inhibition of paw biting behavior in both phases of formalin response => 0.3 umol/kg, iv; assay type: functional, organism-based
# Mus musculus [13] = experiment: Antinociceptive activity against formalin-induced inflammatory pain in iv dosed mouse assessed inhibition of paw licking behavior in both phases of formalin response in presence of CB1 antagonist SR-141716A pretreated before compound challenge; assay type: functional, organism-based
# Mus musculus [14] = experiment: Antinociceptive activity against formalin-induced inflammatory pain in mouse assessed inhibition of paw lifting behavior in both phases of formalin response at => 0.3 umol/kg, iv; assay type: functional, organism-based
# Mus musculus [15] = experiment: Antinociceptive activity against formalin-induced inflammatory pain in iv dosed mouse assessed inhibition of paw biting behavior in both phases of formalin response; assay type: functional, organism-based
# Mus musculus [16] = experiment: Antinociceptive activity against formalin-induced inflammatory pain in iv dosed mouse assessed inhibition of paw flinching behavior in both phases of formalin response; assay type: functional, organism-based
# Mus musculus [17] = experiment: Antinociceptive activity against formalin-induced inflammatory pain in iv dosed mouse assessed inhibition of paw lifting behavior in both phases of formalin response; assay type: functional, organism-based
# Mus musculus [18] = experiment: Antinociceptive activity against formalin-induced inflammatory pain in iv dosed mouse assessed inhibition of paw lifting behavior in both phases of formalin response in presence of CB1 antagonist SR-141716A pretreated before compound challenge; assay type: functional, organism-based
# T1 sequence (P21554 whole entry): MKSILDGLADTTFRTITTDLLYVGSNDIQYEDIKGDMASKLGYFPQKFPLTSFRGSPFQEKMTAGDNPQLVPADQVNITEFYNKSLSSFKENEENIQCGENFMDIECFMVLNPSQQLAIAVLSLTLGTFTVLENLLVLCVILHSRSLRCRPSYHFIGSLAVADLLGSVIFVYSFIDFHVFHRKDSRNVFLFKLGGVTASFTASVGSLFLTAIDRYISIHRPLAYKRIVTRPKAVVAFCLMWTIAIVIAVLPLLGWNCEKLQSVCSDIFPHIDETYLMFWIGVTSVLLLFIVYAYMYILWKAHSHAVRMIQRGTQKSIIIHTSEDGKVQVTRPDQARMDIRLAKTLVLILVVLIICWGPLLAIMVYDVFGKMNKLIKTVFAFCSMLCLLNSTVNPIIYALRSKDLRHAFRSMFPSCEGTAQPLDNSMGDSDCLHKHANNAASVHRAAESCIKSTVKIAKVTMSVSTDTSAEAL
# Cannabinoid receptor 2, sequence (P34972 whole entry): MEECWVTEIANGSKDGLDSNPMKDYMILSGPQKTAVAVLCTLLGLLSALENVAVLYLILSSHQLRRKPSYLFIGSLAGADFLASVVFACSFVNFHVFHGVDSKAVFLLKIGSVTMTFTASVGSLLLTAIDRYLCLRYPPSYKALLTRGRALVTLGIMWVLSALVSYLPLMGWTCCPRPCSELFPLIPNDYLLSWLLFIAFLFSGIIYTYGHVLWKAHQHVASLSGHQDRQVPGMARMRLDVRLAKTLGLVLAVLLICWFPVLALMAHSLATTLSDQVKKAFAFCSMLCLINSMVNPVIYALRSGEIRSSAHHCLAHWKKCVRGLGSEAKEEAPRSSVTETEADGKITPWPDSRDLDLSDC
# Cytochrome P450 2D6, sequence (P10635 whole entry): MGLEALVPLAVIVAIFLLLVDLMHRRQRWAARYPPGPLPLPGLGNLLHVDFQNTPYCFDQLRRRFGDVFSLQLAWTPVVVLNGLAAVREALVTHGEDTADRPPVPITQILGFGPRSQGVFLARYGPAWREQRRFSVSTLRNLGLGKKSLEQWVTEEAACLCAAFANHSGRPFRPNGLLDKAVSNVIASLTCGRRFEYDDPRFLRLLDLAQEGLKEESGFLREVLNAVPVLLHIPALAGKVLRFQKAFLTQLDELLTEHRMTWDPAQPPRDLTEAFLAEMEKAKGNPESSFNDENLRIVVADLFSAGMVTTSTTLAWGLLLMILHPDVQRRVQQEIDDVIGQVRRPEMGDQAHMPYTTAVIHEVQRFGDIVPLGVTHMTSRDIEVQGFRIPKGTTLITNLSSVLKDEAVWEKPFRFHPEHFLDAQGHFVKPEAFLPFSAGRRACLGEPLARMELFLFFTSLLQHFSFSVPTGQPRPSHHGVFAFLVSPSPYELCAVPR
# Cytochrome P450 3A4, sequence (P08684 whole entry): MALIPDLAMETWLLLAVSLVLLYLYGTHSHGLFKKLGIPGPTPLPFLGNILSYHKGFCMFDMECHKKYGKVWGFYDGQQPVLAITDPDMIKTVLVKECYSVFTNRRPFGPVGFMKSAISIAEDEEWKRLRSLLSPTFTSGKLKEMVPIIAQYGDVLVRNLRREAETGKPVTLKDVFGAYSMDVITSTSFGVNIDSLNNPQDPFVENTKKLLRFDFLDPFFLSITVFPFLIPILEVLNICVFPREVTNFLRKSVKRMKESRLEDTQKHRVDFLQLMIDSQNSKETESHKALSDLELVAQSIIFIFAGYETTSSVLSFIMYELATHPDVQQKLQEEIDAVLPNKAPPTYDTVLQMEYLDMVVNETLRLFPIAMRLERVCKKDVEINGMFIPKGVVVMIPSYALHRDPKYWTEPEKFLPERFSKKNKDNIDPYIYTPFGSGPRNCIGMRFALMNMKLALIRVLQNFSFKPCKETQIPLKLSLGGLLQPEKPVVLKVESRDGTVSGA
# Cytochrome P450 2C9, sequence (P11712 whole entry): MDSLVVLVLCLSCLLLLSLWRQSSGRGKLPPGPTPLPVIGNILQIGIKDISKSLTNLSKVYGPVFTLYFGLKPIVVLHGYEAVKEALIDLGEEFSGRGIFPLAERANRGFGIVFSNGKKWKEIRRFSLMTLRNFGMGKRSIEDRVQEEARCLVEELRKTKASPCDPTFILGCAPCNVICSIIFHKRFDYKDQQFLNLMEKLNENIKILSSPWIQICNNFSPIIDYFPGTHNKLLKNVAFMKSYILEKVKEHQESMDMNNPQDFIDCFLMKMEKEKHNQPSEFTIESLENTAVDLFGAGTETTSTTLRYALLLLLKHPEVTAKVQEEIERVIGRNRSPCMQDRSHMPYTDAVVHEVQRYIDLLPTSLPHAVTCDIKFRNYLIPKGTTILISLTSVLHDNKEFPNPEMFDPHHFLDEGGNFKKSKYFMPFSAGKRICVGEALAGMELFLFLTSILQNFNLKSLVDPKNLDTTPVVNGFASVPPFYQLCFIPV
SMILES,pEC50 (Cannabinoid receptor 1 [1]),half-life [2] [min],half-life [3] [min],also measured
COc1cccc2c(C(=O)N3CCN4CCC[C@@H]4C3)cn(CC3CCCCC3)c12,7.20,< 5,< 5,
COc1cccc2c(C(=O)N3C[C@]4(C)CSCN4C[C@@H]3C)cn(CC3CCCCC3)c12.Cl,7.50,< 5,< 5,
COc1cccc2c(C(=O)N3CCN4CCC[C@H]4C3)cn(CC3CCCCC3)c12.Cl,7.70,< 5,< 5,
COc1cccc2c(C(=O)N3C[C@H]4CCCN4CC3(C)C)cn(CC3CCCCC3)c12,6.20,< 5,< 5,
COc1cccc2c(C(=O)N3C[C@@H]4CCCN4CC3(C)C)cn(CC3CCCCC3)c12,7.00,< 5,< 5,
O=C(c1cn2c3c(cccc13)OC[C@H]2C1CCCCC1)N1CCN2CCCC[C@H]2C1,,,,pKi (Cannabinoid receptor 2): 9.40; pKi (Cannabinoid receptor 1 [4]): 8.80; ED50 (Mus musculus [5]): 0.00042 µmol/kg
COc1cccc2c(C(=O)N3CCN4CCC[C@@]4(C)C3)cn(CC3CCCCC3)c12.Cl,5.90,< 5,< 5,
COc1cccc2c(C(=O)N3CCN4CCCC[C@H]4C3)cn(CC3CCCCC3)c12 [listing 1 of 2 here],,,,pKi (Cannabinoid receptor 2): 8.40; pKi (Cannabinoid receptor 1 [4]): 8.60; Activity [6]: Non-toxic; ED50 (Mus musculus [5]): 0.00058 µmol/kg; pIC50 (Cytochrome P450 2D6): 4.89; pIC50 (Cytochrome P450 3A4): 5.22; pIC50 (Cytochrome P450 2C9): 4.92
Cc1c(C(=O)c2cccc3ccccc23)c2cccc3c2n1[C@H](CN1CCOCC1)CO3 [WIN-552122],,,,ED50 (Mus musculus [5]): 0.0017 µmol/kg
COc1cccc2c(C(=O)N3C[C@@H]4CCCN4C[C@@H]3CC(C)C)cn(CC3CCCCC3)c12,< 5.00,< 5,< 5,
COc1cccc2c(C(=O)N3C[C@H]4CCCN4C[C@@H]3C)cn(CC3CCCCC3)c12.Cl,6.30,< 5,< 5,
COc1cccc2c(C(=O)N3C[C@H]4CCCN4C[C@H]3C)cn(CC3CCCCC3)c12.Cl,7.20,< 5,< 5,
COc1cccc2c(C(=O)N3C[C@@H]4CCCN4C[C@@H]3C)cn(CC3CCCCC3)c12,7.00,< 5,< 5,
O=C(c1cn2c3c(cccc13)OC[C@@H]2C1CCCCC1)N1CCN2CCCC[C@H]2C1,5.70,,,
COc1cccc2c(C(=O)N3CCN4CCCC[C@H]4C3)cn(CC3CCCCC3)c12 [listing 2 of 2 here],,,,Activity (Mus musculus [7]): inactive; Activity (Mus musculus [8]): Active; Activity (Mus musculus [9]): inactive; Activity (Mus musculus [10]): Dose-dependent effect; Activity (Mus musculus [11]): Active; Activity (Mus musculus [12]): Active; Activity (Mus musculus [13]): inactive; Activity (Mus musculus [14]): Active; Activity (Mus musculus [15]): Dose-dependent effect; Activity (Mus musculus [16]): Dose-dependent effect; Activity (Mus musculus [17]): Dose-dependent effect; Activity (Mus musculus [18]): inactive
COc1cccc2c(C(=O)N3C[C@H]4CCCN4C[C@H]3CC(C)C)cn(CC3CCCCC3)c12,6.50,< 5,< 5,
COc1cccc2c(C(=O)N3CCN4CCCC[C@H]4C3)cn(CC3CCCCC3)c12.Cl,,< 5,< 5,
COc1cccc2c(C(=O)N3CCN4CCCC[C@@H]4C3)cn(CC3CCCCC3)c12,7.00,< 5,< 5,
COc1cccc2c(C(=O)N3C[C@@H]4CCCN4C[C@H]3C)cn(CC3CCCCC3)c12.Cl,6.00,< 5,< 5,
CCCCCCC(C)(C)c1ccc([C@@H]2C[C@H](O)CC[C@H]2CCCO)c(O)c1 [CP-55940],,,,ED50 (Mus musculus [5]): 0.00011 µmol/kg
